This is an account of results in patent US10570463B2, “Nucleic acid modifying agents and uses thereof” (BIOTIUM, INC., priority 2014, dated 2020).

Each structure is given as a SMILES string. Entries after “also recorded” stand apart in the source; their conditions may differ.

One assay concerns swabbed S. epidermidis. Put plainly: Viability PCR (dCt) in Staphylococcus epidermidis collected by swabbing. As to conditions: live and heat-killed S. epidermidis dried on plastic and swabbed; FIG. 5. Type of assay: cell-based. On the procedure: As in Example 16, Staphylococcus epidermidis was cultured in nutrient broth (NB) overnight at 37° C. The following day, the absorbance of the cultures at 600 nm was measured and the cultures were diluted to OD600=1.0 in growth media. For dead cell samples, bacteria were placed in a 95° C. heat block for 5 minutes, and then allowed to return to room temperature. 1200 uL of live or dead bacteria were spread separately onto sterile plastic petri dishes and air-dried for four hours. To mimic a common method of bacterial sample collection, a sterile cotton swab was moistened with NB, swabbed on the plate and swirled in a tube containing 1200 uL NB. This process was repeated 3 times each for live and dead bacteria, until most of the bacteria from the plate had been transferred into the media. 400 uL of swabbed bacteria was pipetted into tubes, and either left untreated, treated with PMA dye, or treated with Compound 014, as described in Example 16. Viability PCR was performed and the effect of each dye was measured by determining the dCt. The dCt was calculated by subtracting the Ct of untreated sample from dye-treated sample. […] The dCt values are shown above each bar.

In assay [1] the test system is Mycobacterium avium subspecies paratuberculosis (MAP). Conditions: PMA qPCR; cited from earlier work. (Quantitative PCR measures a nucleic acid by following its amplification.)
Assay [2] concerns Salmonella serovar Enteritidis. As to conditions: cited from earlier work.
Assay [3] has as its system relatively short amplicons. Conditions: cited from earlier work.
The test system of another assay is Staphylococcus aureus. Conditions: samples collected by swabbing from surfaces; cited from earlier work.
The subject of assay [4] is Staphylococcus epidermidis. Put plainly: Viability PCR (dCt, 16S rDNA) after dye treatment and photolysis, cultured Staphylococcus epidermidis. Format: cell-based. As to conditions: 50 uM dye, 3D; for dCt, modification of DNA in live cells: live S. epidermidis, 470 nm light 15 min, FIG. 1, 2B. As to the method: Escherichia coli, Salmonella enterica, and Bacillus subtilis were cultured in tryptic soy broth (TSB). Staphylococcus epidermidis was cultured in nutrient broth (NB). Bacteria were cultured overnight at 37° C. The following day, the absorbance of the cultures at 600 nm was measured and the cultures were diluted to OD600=1.0 in growth media. Bacteria cultures were pipetted into 1.5 mL screw-top tubes at 400 uL per tube. For dead cell samples, tubes were placed in a 95° C. heat block for 5 minutes, and then allowed to return to room temperature. PMA products (cat #40013 and 40019, Biotium) and selected compounds of the disclosure (104.1, 014, or 020, where indicated) were diluted to 2.5 mM in water, and then 8 uL was added to the bacterial culture for a final concentration of 50 uM. Cultures were incubated on a rocker in the dark at room temperature for 10 minutes, and then exposed to 470 nm wavelength light in the PMA-Lite LED device for 15 minutes. Samples were centrifuged at 5000×g for 10 minutes and the supernatant was aspirated off. DNA was then purified from bacterial pellets using the Qiagen Blood and Tissue kit and eluted in 100 uL elution buffer.
PCR was performed using the universal primers DG74 and RW01 which amplify a 370-bp region of the 16S rDNA. Forward Primer DG74 sequence: 5′-AGG AGG TGA TCC AAC CGC A-3′. Reverse Primer RW01 sequence: 5′-AACTGGAGGAAGGTGGGGAT-3′. The following PCR mix was prepared for each sample: 12.5 uL Fast EvaGreen Master Mix (Biotium), 1 uL 5 uM primer mix, 9.5 uL water, and 2 uL isolated bacterial DNA. […] 25 sec, 72° C., acquiring fluorescence after this step. Using the Rotor-Gene Q software, normalized fluorescence and Ct values were calculated. The change in Ct (dCt) caused by a dye was calculated by subtracting the Ct of the untreated bacteria from the Ct of the dye-treated bacteria.
Live Staphylococcus epidermidis (a gram-positive bacteria) was either left untreated, treated with one of two versions of commercial PMA products (cat #40013 and 40019, Biotium), or treated with a compound of the present disclosure (compound 104.1, 014, or 020). Viability PCR was performed and the effect of each dye was measured by determining the dCt. The dCt was calculated by subtracting the Ct of untreated sample from dye-treated sample. […]
(§1) Live or dead Bacillus subtilis (FIG. 2A) or Staphylococcus epidermidis (FIG. 2B) were either left untreated, treated with one of two versions of commercial PMA products (cat #40013 and cat #40019, Biotium), or treated with Compound 104.1. Viability PCR was performed and the effect of each dye was measured by determining the dCt. The dCt was calculated by subtracting the Ct of untreated sample from dye-treated sample. […]

Assay [5] deals with Jurkat cells. Put plainly: Viability staining of live and heat-killed Jurkat cells, flow cytometry. Type of assay: cell-based, human. Conditions: 1 uM. As to the method:
Jurkat cells were maintained in RPMI media supplemented with 10% fetal bovine serum, 10 mM HEPES, and 1 mM sodium pyruvate. Cells were counted and diluted to 1.0×10^6 cells/mL in growth media. Cells were pelleted by centrifugation at 350×g and resuspended in PBS. Half of the cells were heat-killed by incubation in a 56° C. water bath for 45 minutes. After they had cooled to room temperature, live and dead cells were combined in a 1:1 ratio, pelleted and washed once with PBS, and resuspended in PBS at 1.0×10^6 cells/mL. Aliquots of 1 mL were pipetted into 1.5 mL microcentrifuge tubes. Working in the dark, PMA and compound 104.1 were diluted to 1 mM in water. 1 uL of the indicated compound was added to 1 mL of cells for a final concentration of 1 uM. Cells were incubated in the dark, rocking, for 10 minutes, then exposed to light in the PMA-Lite for 15 minutes. Cells were transferred to FACS tubes and pelleted. Half of the tubes were placed at 4° C. in the dark (unfixed). […]
Stained cells were analyzed by flow cytometry on a BD LSRII. For detection of PMA and compound 104.1 staining, samples were excited with the 488 nm laser, and the signal was detected in the PE-Texas Red channel. Flow cytometry data was analyzed using FlowJo software from […]. […]
(In flow cytometry, cells or beads pass a laser one at a time.)

Assay [6] deals with Jurkat cells. Put plainly: Viability staining of live and heat-killed Jurkat cells, fluorescence microscopy. Type of assay: cell-based, human. Conditions: Cy3 filter. On the procedure: 1:1 mixtures of live and heat-killed Jurkat cells were prepared and treated with PMA, as described in Example 21. The cells were transferred to a black optical bottom 96-well plate and imaged on an Olympus IX71 inverted fluorescence microscope using a Cy3 filter cube and Retiga 2000R Fast 1394 digital CCD camera with 300 msec exposure time. Imaging results are provided in FIG. 7A-D. The stained cells were either left unfixed (FIGS. 7A and B) or fixed and permeabilized (FIGS. 7C and D). Fluorescence images (FIGS. 7A and C) show stained cells, while merged fluorescence/phase contrast images (FIGS. 7B and D) show stained and unstained cells.

The test system of another assay is Bacillus subtilis. The experiment in a line: Viability PCR (dCt, 16S rDNA) after dye treatment and photolysis, cultured Bacillus subtilis. Format: cell-based. Conditions: 50 uM dye, compared with PMA, FIG. 2A, 3C. As to the method:
(§2) Escherichia coli, Salmonella enterica, and Bacillus subtilis were cultured in tryptic soy broth (TSB). Staphylococcus epidermidis was cultured in nutrient broth (NB). Bacteria were cultured overnight at 37° C. The following day, the absorbance of the cultures at 600 nm was measured and the cultures were diluted to OD600=1.0 in growth media. Bacteria cultures were pipetted into 1.5 mL screw-top tubes at 400 uL per tube. For dead cell samples, tubes were placed in a 95° C. heat block for 5 minutes, and then allowed to return to room temperature. […]
(§3) PCR was performed using the universal primers DG74 and RW01 which amplify a 370-bp region of the 16S rDNA. […] 25 sec, 72° C., acquiring fluorescence after this step. Using the Rotor-Gene Q software, normalized fluorescence and Ct values were calculated. The change in Ct (dCt) caused by a dye was calculated by subtracting the Ct of the untreated bacteria from the Ct of the dye-treated bacteria.
as §1

A further assay relates to Escherichia coli. Put plainly: Viability PCR (dCt, 16S rDNA) after dye treatment and photolysis, cultured Escherichia coli. Type of assay: cell-based. Conditions: 50 uM dye, compared with PMA, FIG. 3A. On the procedure:
as §2, §3
(§4) Live or dead Escherichia coli (FIG. 3A), Salmonella enterica (FIG. 3B), Bacillus subtilis (FIG. 3C) or Staphylococcus epidermidis (FIG. 3D) were either left untreated, treated with PMA, or treated with Compound 014. Viability PCR was performed and the effect of each dye was measured by determining the dCt. The dCt was calculated by subtracting the Ct of untreated sample from dye-treated sample. […]

Another assay concerns Salmonella enterica. The experiment in a line: Viability PCR (dCt, 16S rDNA) after dye treatment and photolysis, cultured Salmonella enterica. Type of assay: cell-based. Conditions: 50 uM dye, compared with PMA, FIG. 3B. As to the method: as §2, §3, §4

Regarding `CC[N+](C)(CC)CCC[n+]1c(-c2ccccc2)c2cc(N=[N+]=[N-])ccc2c2ccc(N)cc21` [PMA, propidium monoazide], the “live/dead discrimination by dCt” value in the assay on swabbed S. epidermidis was “did not function well to discriminate live and dead”. In addition, the results for the “entry of dye into viable cells” value in assay [1] and in assay [2] (viable Salmonella serovar Enteritidis) were “found to enter viable MAP” and “found to enter viable Salmonella serovar Enteritidis”, respectively. Besides, the “suppression of qPCR signal from killed bacteria” value in [2] (killed Salmonella serovar Enteritidis) is listed as “ineffective in suppressing qPCR signal from the killed bacteria”. Further, the “effect of PMA treatment on amplification of short amplicons” value in [3] is listed as “not affected by PMA treatment”. Besides, the “determination of amount of living cells” value with Staphylococcus aureus is “does not allow the determination of amount of living cells”. For the same compound, in [4], the “dCt, modification of DNA in live cells” value was “causes some modification of DNA”. The “staining of live and dead cells after fixation and permeabilization” value with Jurkat cells [5] (2% formaldehyde, 0.1% Triton X-100, FIG. 6B, 6D) was “increase in staining of live cells (loss of specificity)”. The “staining of live and dead cells, unfixed” value in the assay on Jurkat cells [5] (unfixed cells, 488 nm laser, PE-Texas Red channel, FIG. 6A, 6C) was “bright, specific staining of dead cells”. In addition, the “fluorescence discrimination of stained and unstained cells, fixed and permeabilized” value with Jurkat cells [6] (fixed and permeabilized cells, FIG. 7C, 7D) is “PMA staining is retained after fixation, with clear discrimination between PMA-positive and PMA-negative cells”. Further, the “fluorescence discrimination of stained and unstained cells, unfixed” value with Jurkat cells [6] (unfixed cells, FIG. 7A, 7B) is “greater difference in fluorescence intensity between PMA-positive and PMA-negative cells”.
Turning to `C[N+](C)(C)CCNC(=O)CCOCCOCCOCCOCCNC(=O)CCCCC[n+]1c(-c2ccccc2)c2cc(N)ccc2c2ccc(N=[N+]=[N-])cc21` [Compound 014], the “live/dead discrimination by dCt” value with swabbed S. epidermidis was “showed a large difference between live and dead cells”. Besides, the “dCt, effect on dead cells” value in the assay on Bacillus subtilis (heat-killed B. subtilis) was “greater effect on dead cells”; in the assay with Escherichia coli (heat-killed E. coli), “greater effect on dead cells”; with Salmonella enterica (heat-killed S. enterica), “greater effect on dead cells”; in assay [4] (heat-killed S. epidermidis, compared with PMA, FIG. 2B), “greater effect on dead cells”. The “dCt, effect on live cells” value in the assay with Bacillus subtilis (live B. subtilis), in the assay on Escherichia coli (live E. coli) and with Salmonella enterica (live S. enterica) was “less of an effect on live cells” each time. Besides, the “dCt, modification of DNA in live cells” value in [4] was “little to none; also recorded: less of an effect on live cells”.
With `[N-]=[N+]=Nc1ccc2c3ccc(N)cc3c(-c3ccccc3)[n+](CCCCCC(=O)NCCOCCOCCOCCOCCC(=O)N[C@@H](CS(=O)(=O)[O-])C(=O)O)c2c1` [Compound 020], the “dCt, modification of DNA in live cells” value in assay [4] is given as “little to none”.
